Experimental data taken from ChEMBL document CHEMBL1201862, “PubChem BioAssay data set” (2004).
The source made the active and inactive calls.

Assays:
[1] = cytotoxicity in HPDE-C7 cells, cell-based, fluorescence, HTS (AID 430); format: functional; conditions: Homo sapiens
[2] = cytotoxicity in KRAS-transformed pancreatic duct cells, primary screen, cell-based, fluorescence, HTS (AID 431); format: functional; conditions: Homo sapiens;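 further: cell line used: HPDE-C7K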
[3] = biological target: T1, High affinity choline transporter 1 (Homo sapiens, UniProt Q9GZV3); experiment: CHT inhibitors, dose response, cell-based, 5-point CRC, membrane potential dye (AID 504840); format: functional
T1 sequence (Q9GZV3 whole entry): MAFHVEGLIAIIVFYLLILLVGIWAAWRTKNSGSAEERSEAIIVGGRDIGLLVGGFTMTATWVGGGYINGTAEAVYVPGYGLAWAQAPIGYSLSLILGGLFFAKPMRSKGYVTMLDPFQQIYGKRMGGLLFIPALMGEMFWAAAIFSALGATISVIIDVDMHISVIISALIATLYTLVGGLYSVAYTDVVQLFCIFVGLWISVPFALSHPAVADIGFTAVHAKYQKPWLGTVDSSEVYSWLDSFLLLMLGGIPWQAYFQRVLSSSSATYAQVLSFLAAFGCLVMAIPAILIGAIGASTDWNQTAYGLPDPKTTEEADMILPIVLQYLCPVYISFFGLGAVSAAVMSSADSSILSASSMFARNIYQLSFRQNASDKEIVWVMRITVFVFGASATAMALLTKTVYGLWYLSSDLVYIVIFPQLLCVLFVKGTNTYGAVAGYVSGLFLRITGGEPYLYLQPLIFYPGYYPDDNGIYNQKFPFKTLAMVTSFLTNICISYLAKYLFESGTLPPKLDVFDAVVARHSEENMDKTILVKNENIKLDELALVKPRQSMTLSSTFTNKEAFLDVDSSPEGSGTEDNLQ

[4] = biological target: T1, High affinity choline transporter 1; experiment: CHT inhibitors, dose response, cell-based, 10-point CRC, membrane potential dye (AID 588401); format: functional;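 further: membrane potential dye fluorescence of choline-evoked depolarization via CHT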
Melanocortin receptor 4 = Melanocortin receptor 4 (Homo sapiens, UniProt P32245); experiment: MC4R antagonist potency on cAMP, dose response, cell-based, TR-FRET, biased antagonists (AID 602298); format: functional;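 further: antagonist potency against agonist-stimulated cAMP production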
Melanocortin receptor 4, sequence (P32245 whole entry): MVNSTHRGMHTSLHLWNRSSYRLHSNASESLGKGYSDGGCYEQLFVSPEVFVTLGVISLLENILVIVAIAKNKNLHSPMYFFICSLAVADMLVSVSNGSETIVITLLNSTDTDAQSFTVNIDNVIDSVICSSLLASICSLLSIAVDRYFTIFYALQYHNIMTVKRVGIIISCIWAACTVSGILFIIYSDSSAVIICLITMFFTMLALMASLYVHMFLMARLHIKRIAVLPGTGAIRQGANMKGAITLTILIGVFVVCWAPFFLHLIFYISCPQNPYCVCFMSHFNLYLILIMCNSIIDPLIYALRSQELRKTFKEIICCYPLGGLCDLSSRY

[5] = nonselective inhibitors of cellular cAMP signaling, dose response, counter-screen for MC4R biased antagonist project, cell-based, TR-FRET cAMP detection (AID 602305); format: functional;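 further: U2OS cells stimulated with forskolin near its EC80 as the cAMP inducer; potency is for inhibition of forskolin-stimulated cAMP signaling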
[6] = Shn3 3'UTR reporter inhibitors, dose response, cell-based, Clone20 osteoblasts, firefly luciferase, cherry-picked (AID 624132); format: functional;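 further: firefly luciferase luminescence from reporter carrying the Shn3 3'UTR in osteoblasts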
[7] = HepG2 cell cytotoxicity, dose response, cytotoxicity control for Shn3 inhibitor project, CellTiter-Glo, cherry-picked (AID 624134); format: functional, cell-based
[8] = control 3'UTR Renilla luciferase suppression, dose response, counter-screen for Shn3 inhibitor project, cell-based, Clone20-Shn3RL, cherry-picked (AID 624133); format: functional
Protein Wnt-3a = Protein Wnt-3a (Mus musculus, UniProt P27467); experiment: Wnt3a-driven reporter signaling inhibition, dose response, selectivity assay for Gli-SUFU antagonist project, Wnt-LIGHT cells, luminescence (AID 651570); format: functional; conditions: read-out: IC50_Mean;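 further: Wnt-LIGHT reporter cells stimulated with conditioned medium from Wnt3a-producing cells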
Protein Wnt-3a, sequence (P27467 whole entry): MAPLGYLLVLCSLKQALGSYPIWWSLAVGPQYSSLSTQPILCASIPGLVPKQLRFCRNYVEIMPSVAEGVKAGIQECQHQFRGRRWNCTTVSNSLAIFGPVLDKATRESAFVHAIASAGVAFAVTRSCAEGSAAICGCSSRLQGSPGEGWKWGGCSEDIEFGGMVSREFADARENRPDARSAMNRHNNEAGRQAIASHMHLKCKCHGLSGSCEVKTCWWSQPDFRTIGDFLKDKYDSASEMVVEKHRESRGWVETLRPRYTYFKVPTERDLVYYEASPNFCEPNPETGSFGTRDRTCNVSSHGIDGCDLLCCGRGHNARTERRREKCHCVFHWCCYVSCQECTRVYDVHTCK

[9] = AlphaScreen signal interference compounds, dose response, artefact control for ARNT-TACC3 interaction inhibitor project, biochemical, luminescence, cherry-pick (AID 651705); format: functional;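 further: AlphaScreen bead proximity signal that flags compounds interfering with the detection technology; potency reflects signal decrease which marks the compound as an assay artifact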
[10] = biological target: T2, Apoptotic protease-activating factor 1 (Homo sapiens, UniProt O14727); experiment: SAR analysis of small molecule Activators of Apaf-1 in a Fluorescent assay.; format: functional; conditions: read-out: EC50_Mean;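 further: caspase-3 cleavage of fluorogenic Rh110 DEVD substrate downstream of apoptosome activation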
T2 sequence (O14727 whole entry): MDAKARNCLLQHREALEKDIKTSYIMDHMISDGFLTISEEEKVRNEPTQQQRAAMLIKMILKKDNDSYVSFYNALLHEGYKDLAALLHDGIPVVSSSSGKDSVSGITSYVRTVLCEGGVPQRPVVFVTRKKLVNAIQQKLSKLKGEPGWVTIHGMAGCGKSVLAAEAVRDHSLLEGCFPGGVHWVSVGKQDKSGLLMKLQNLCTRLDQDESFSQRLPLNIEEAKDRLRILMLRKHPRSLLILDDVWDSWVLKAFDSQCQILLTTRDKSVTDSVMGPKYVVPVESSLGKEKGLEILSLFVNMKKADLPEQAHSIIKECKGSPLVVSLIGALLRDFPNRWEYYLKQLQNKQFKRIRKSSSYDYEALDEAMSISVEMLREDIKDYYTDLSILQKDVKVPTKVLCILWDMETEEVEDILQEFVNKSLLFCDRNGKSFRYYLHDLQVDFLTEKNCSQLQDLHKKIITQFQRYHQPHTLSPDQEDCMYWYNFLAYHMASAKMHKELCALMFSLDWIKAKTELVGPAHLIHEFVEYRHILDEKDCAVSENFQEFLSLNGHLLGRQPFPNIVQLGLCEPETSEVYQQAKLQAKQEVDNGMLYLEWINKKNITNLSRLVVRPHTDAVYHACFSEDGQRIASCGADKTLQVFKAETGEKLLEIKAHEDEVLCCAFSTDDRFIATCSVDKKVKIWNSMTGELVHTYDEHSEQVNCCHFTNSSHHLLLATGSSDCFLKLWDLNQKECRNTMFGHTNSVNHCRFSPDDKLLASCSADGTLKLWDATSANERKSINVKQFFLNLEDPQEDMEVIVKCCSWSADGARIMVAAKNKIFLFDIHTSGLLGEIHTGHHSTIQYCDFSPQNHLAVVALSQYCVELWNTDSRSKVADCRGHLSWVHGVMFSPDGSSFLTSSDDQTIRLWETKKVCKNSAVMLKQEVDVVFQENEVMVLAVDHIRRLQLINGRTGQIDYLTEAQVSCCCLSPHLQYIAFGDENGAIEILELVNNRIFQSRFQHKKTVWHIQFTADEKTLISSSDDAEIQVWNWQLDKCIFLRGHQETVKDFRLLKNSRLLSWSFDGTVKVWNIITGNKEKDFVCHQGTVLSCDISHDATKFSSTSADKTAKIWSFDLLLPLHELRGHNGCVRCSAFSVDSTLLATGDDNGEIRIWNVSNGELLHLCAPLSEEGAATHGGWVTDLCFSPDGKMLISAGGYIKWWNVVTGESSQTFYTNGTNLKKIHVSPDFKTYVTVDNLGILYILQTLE

[11] = Luminescence Cell-Based Dose Retest to Confirm Inhibitors of Cancer Stem Cells. [Related pubchem assays (depositor defined):AID2717, AID2721]; format: functional; conditions: Homo sapiens
[12] = biological target: T3, Heat shock factor protein 1 (Mus musculus, UniProt P38532); experiment: HSF1 potentiators in luciferase reporter cells, confirmation, cell-based, NIH3T3, luminescence, dose retest (AID 435004); format: functional;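 further: stress induced by proteasome inhibitor MG132 added 30 min after compound; luciferase reporter driven by HSF1 response element in NIH3T3 cells; actives raise luminescence as potentiators of the MG132 stress response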
T3 sequence (P38532 whole entry): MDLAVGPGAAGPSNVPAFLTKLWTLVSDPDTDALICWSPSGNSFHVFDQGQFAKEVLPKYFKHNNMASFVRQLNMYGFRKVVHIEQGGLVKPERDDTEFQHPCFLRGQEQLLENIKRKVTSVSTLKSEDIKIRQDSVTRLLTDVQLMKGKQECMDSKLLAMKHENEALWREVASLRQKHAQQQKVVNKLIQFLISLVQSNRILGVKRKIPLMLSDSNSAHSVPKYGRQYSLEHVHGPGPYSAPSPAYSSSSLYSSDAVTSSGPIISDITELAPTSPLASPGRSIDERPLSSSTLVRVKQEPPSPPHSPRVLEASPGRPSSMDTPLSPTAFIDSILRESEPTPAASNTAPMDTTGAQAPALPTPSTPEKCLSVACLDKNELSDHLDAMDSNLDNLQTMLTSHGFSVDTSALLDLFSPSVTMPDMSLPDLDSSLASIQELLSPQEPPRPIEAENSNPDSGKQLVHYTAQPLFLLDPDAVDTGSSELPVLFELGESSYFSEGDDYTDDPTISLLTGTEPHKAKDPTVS

[13] = biological target: T4, Replicative DNA helicase DnaB (Mycobacterium tuberculosis, UniProt P9WMR3); experiment: DnaB intein splicing inhibitors, dose response, biochemical, cell-free fluorescence (AID 449749); format: functional
T4 sequence (P9WMR3 whole entry): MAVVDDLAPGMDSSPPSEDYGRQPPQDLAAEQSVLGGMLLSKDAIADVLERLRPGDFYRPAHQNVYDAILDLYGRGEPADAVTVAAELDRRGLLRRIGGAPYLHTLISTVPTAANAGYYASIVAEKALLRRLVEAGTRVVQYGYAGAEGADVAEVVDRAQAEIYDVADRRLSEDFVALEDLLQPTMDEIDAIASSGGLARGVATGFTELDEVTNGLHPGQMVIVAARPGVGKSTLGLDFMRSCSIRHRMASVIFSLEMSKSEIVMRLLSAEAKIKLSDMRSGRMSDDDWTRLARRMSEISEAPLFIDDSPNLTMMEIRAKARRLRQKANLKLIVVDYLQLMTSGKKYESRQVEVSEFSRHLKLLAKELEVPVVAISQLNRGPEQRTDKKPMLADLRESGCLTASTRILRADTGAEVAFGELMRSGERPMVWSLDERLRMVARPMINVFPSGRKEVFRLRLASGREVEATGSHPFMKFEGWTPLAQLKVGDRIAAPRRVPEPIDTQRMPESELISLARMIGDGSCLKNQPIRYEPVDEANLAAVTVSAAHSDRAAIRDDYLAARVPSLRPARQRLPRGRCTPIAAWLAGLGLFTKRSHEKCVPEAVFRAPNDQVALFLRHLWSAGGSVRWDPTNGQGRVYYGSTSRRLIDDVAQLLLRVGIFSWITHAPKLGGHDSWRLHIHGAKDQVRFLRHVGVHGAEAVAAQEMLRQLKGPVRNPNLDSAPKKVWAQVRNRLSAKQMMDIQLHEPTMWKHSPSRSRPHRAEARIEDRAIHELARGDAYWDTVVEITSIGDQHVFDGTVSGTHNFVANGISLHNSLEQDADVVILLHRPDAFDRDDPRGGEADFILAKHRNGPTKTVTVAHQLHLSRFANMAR

Protein RecA = biological target: T5, Protein RecA (Mycobacterium tuberculosis, UniProt P9WHJ3); experiment: Fluorescence Cell-Free Homogeneous Dose Retest to Identify Inhibitors of RecA-Intein Splicing Activity. [Related pubchem assays (depositor defined):AID2097, AID2223, AID489010, AID492950]; format: functional
T5 sequence (P9WHJ3 whole entry): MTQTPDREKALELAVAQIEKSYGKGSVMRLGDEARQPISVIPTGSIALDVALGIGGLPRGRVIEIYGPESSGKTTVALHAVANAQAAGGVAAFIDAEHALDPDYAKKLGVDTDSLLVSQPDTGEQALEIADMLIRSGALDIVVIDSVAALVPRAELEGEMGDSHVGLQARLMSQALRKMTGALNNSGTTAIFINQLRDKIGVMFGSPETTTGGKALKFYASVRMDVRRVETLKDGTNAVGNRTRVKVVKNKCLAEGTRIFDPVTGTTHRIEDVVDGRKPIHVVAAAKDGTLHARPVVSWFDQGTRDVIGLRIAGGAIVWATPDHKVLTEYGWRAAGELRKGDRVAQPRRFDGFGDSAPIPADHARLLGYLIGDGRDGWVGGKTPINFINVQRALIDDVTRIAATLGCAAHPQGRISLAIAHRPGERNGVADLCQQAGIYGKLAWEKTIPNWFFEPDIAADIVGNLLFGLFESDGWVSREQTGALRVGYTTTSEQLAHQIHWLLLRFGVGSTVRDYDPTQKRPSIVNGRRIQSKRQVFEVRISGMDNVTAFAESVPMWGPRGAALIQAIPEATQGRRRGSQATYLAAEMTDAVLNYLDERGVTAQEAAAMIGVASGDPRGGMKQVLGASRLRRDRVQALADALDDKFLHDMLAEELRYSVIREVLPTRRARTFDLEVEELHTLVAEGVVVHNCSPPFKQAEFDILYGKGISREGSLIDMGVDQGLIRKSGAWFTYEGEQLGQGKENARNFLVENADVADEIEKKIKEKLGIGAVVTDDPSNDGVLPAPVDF

**Q.** With `CCN(CC)S(=O)(=O)c1cc(C(=O)Nc2nncs2)c(Cl)cc1Cl` as the molecule, how does the EC50 [1] read?
**A.** 13.5 µM (active)

**Q.** What about the EC50 [2] of the same molecule?
**A.** > 20 µM (not active)

**Q.** What about the IC50 [3] of the same molecule?
**A.** 7.64 µM (active)

**Q.** What about the IC50 [4] of the same molecule?
**A.** 6.21 µM (active)

**Q.** What does the source list for `Cc1ccc(-n2nc3ccc(NC(=S)NC(=O)/C=C/c4ccco4)cc3n2)cc1`?
**A.** IC50 (Melanocortin receptor 4): 55.6 µM (inactive); IC50 [5]: > 64.6 µM (inactive)

**Q.** Which IC50 [3] does the source give for `CC(C)(C)NCC(O)c1cc(O)cc(O)c1` (stereo not given) here?
**A.** 0.0841 µM (active)

**Q.** And the IC50 [4]?
**A.** 0.0142 µM (active)

**Q.** For `COc1ccc(CNCC(O)COc2cccc3c2OC(C)(C)C3)cc1` (stereo not given), which AC50 [6] is on record?
**A.** 1.68 µM (active)

**Q.** What about the AC50 [7] of the same molecule?
**A.** 49.4 µM (active)

**Q.** What about the AC50 [8] of the same molecule?
**A.** 1.57 µM (active)

**Q.** And the IC50 (Protein Wnt-3a)?
**A.** 3.22 µM (active)

**Q.** For `Nc1nc(O)nc(Nc2ccccc2)c1N=O`, which AC50 [9] is on record?
**A.** 111 µM (active)

**Q.** Which IC50 (Protein Wnt-3a) does the source give for `COc1ccc(CN(C)Cc2nc(Cc3cccc(F)c3)no2)c2cccnc12` here?
**A.** 2.18 µM (active)

**Q.** For `O=[N+]([O-])c1ccc(CSc2nnc3ccccn23)cc1`, which IC50 [3] is on record?
**A.** 4.29 µM (active)

**Q.** What about the IC50 [4] of the same molecule?
**A.** 0.8 µM (active)

**Q.** With `COc1ccc(C2=N[C@H](C(=O)O)CO2)cc1C(F)(F)F` as the molecule, how does the EC50 [10] read?
**A.** > 100 µM (inactive)

**Q.** For `O=C(C[S+]([O-])c1ccc(C(F)(F)F)cc1[N+](=O)[O-])Oc1ccccc1` (stereo not given), which AC50 [11] is on record?
**A.** 3.71 µM (active)

**Q.** What about the EC50 [12] of the same molecule?
**A.** 22.7 µM (active)

**Q.** What about the AC50 [13] of the same molecule?
**A.** 10.4 µM (active)

**Q.** And the IC50 [3]?
**A.** 12.3 µM (active)

**Q.** And the EC50 (Protein RecA)?
**A.** 4.59 µM (active)

**Q.** What about the IC50 (Melanocortin receptor 4) of the same molecule?
**A.** 13.5 µM (inactive)

**Q.** And the IC50 [5]?
**A.** > 64.6 µM (inactive)

**Q.** For `CC(CC(F)(F)F)C(=O)O` (stereo not given), which EC50 [10] is on record?
**A.** > 100 µM (inactive)
